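Each compound was tested at five concentrations against cells in 96-well plates for 48 hours. GI50 marks 50% less growth.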 Activity calls are given as the source filed them. Rule as the data show it: active = GI50 up to about 1.1 µM and inactive = higher.
Experiments:
Assay in all cases: DTP human tumour cell line panel, 48 h
NCI/ADR-RES = system: NCI/ADR-RES
NCI-H226 = system: NCI-H226
A498 = system: A498
SK-MEL-2 = system: SK-MEL-2
RXF 393 = system: RXF 393
K562 = system: K562
MDA-MB-231 = system: MDA-MB-231
A549 = system: A549
MCF7 = system: MCF7
UO-31 = system: UO-31
Malme-3M = system: Malme-3M
NCI-H23 = system: NCI-H23
786-0 = system: 786-0
OVCAR-4 = system: OVCAR-4
SK-MEL-5 = system: SK-MEL-5
HL-60 = system: HL-60
SN12C = system: SN12C
BT-549 = system: BT-549
OVCAR-3 = system: OVCAR-3
CCRF-CEM = system: CCRF-CEM

Measured: GI50

CCOC(=O)/C=C(/C=C\COC1CCCCO1)c1ccccc1 (stereo not given)
inactive: NCI/ADR-RES 24.5 µM | NCI-H226 70.6 µM | A498 > 100 µM | SK-MEL-2 55.2 µM | RXF 393 16.1 µM | K562 28.5 µM | MDA-MB-231 42.4 µM | A549 38.4 µM | MCF7 29 µM | UO-31 36 µM | Malme-3M 84.7 µM | NCI-H23 38.4 µM | 786-0 24.7 µM | OVCAR-4 31.5 µM | SK-MEL-5 35 µM | HL-60 18.3 µM | SN12C 22.9 µM | BT-549 41.1 µM | OVCAR-3 29.2 µM | CCRF-CEM 25.6 µM

— ChEMBL document CHEMBL1201862, “PubChem BioAssay data set” (2004)
